The target of this test is human recombinant H-PGDS (Homo sapiens, UniProt O60760). In words: Fluorescence intensity h-PGDS TBA enzyme assay. Type of test: biochemical. The settings on record: Examples up to 622 (and 3a, 3b).
Chain of human recombinant H-PGDS (O60760 whole entry): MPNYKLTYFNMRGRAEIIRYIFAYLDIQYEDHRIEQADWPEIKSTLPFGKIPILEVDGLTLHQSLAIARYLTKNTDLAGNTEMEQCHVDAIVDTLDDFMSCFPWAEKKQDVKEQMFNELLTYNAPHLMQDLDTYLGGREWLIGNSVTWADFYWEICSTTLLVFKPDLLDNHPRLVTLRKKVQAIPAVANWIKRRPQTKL

By IC50 is commonly meant the point on the concentration scale where inhibition reaches its midpoint. `O=C(NC1CCN(CC2CCOCC2)CC1)c1ccc(-c2cccc(F)c2)nc1` [Example 593, 6-(3-Fluorophenyl)-N-[1-(tetrahydro-2H-pyran-4-ylmethyl)piperidin-4-yl]nicotinamide]: the IC50 is 2 nM.

For `O=C(NC1CCN(Cc2nc3cccc4c3n2CC=C4)CC1)c1ccc(-c2cccc(F)c2)nc1` [Example 456, 6-(3-Fluorophenyl)-N-[1-(4H-imidazo[4,51-ij]quinolin-2-ylmethyl)piperidin-4-yl]nicotinamide], the IC50 amounted to 2.05 nM.

As for `COc1ccc2nccc(CN3CCC(NC(=O)c4ccc(-c5cccc(F)c5)nc4)CC3)c2n1` [Example 491, 6-(3-Fluorophenyl)-N-{1-[(6-methoxy-1,5-naphthyridin-4-yl)methyl]piperidin-4-yl}nicotinamide], the IC50 amounted to 2.4 nM.

With `COc1cc2nc(N3CCC(NC(=O)c4ccc(-c5cccc(F)c5)nc4)CC3)nc(N)c2cc1OC` [Example 130, N-[1-(4-Amino-6,7-dimethoxyquinazolin-2-yl)piperidin-4-yl]-6-(3-fluorophenyl)nicotinamide], the IC50 worked out at 4.57 nM.

`Cc1nn(C)c(C)c1NC(=O)c1ccc(N2CCC(NC(=O)c3ccc(-c4cccc(F)c4)nc3)CC2)nn1` [Example 89, 6-[4-({[6-(3-Fluorophenyl)pyridin-3-yl]carbonyl}amino)piperidin-1-yl]-N-(1,3,5-trimethyl-1H-pyrazol-4-yl)pyridazine-3-carboxamide]: the IC50 stood at 0.365 nM.

Take `CCOC(=O)Cn1cc(CN2CCC(NC(=O)c3ccc(-c4cccc(F)c4)nc3)CC2)cn1` [Example 466, Ethyl (4-{[4-({[6-(3-fluorophenyl)pyridin-3-yl]carbonyl}amino)piperidin-1-yl]methyl}-1H-pyrazol-1-yl)acetate]: the half-inhibitory concentration (IC50) stood at 1.49 nM.

As for `Nc1nc(N2CCC(NC(=O)c3ccc(-c4cccc(F)c4)nc3)CC2)c2nc[nH]c2n1` [Example 132, N-[1-(2-Amino-9H-purin-6-yl)piperidin-4-yl]-6-(3-fluorophenyl)nicotinamide], the half-inhibitory concentration (IC50) came out at 0.365 nM.

For the compound `CCCC(=O)N1CCC(NC(=O)c2ccc(-c3ccc(F)cc3)nc2)CC1` [Example 10, N-(1-Butyrylpiperidin-4-yl)-6-(4-fluorophenyl)nicotinamide], the half-maximal inhibitory concentration (IC50) is 78.4 nM.

Take `Cc1ccc(-c2nc(CN3CCC(NC(=O)c4ccc(-c5cccc(F)c5)nc4)CC3)n(C)n2)nn1` [Example 477, 6-(3-Fluorophenyl)-N-(1-{[1-methyl-3-(6-methylpyridazin-3-yl)-1H-1,2,4-triazol-5-yl]methyl}piperidin-4-yl)nicotinamide]: the IC50 amounted to 4.04 nM.

Take `O=C(NC1CCN(Cc2cc(Br)ccc2O)CC1)c1ccc(-c2cccc(F)c2)nc1` [Example 223, N-[1-(5-Bromo-2-hydroxybenzyl)piperidin-4-yl]-6-(3-fluorophenyl)nicotinamide]: the IC50 stood at 0.928 nM.

For the compound `CC(C)(C)CN1CCC(NC(=O)c2ccc(-c3cccc(F)c3)nc2)CC1` [Example 251, N-[1-(2,2-Dimethylpropyl)piperidin-4-yl]-6-(3-fluorophenyl)nicotinamide], the IC50 was determined as 0.623 nM.

On to `Cc1nn(C)cc1CN1CCC(NC(=O)c2ccc(-c3cccc(F)c3)nc2)CC1` [Example 328, N-{1-[(1,3-Dimethyl-1H-pyrazol-4-yl)methyl]piperidin-4-yl}-6-(3-fluorophenyl)nicotinamide], for which the half-inhibitory concentration (IC50) worked out at 0.566 nM.

For `COCCN1CCC(N2CCC(NC(=O)c3ccc(-c4cccc(F)c4)nc3)CC2)CCC1=O` (centres unmarked) [Example 539, 6-(3-Fluorophenyl)-N-{1-[1-(2-methoxyethyl)-7-oxoazepan-4-yl]piperidin-4-yl}nicotinamide], the IC50 was determined as 2.71 nM.

In the case of `COc1ccc(C(C)N2CCC(NC(=O)c3ccc(-c4cccc(F)c4)nc3)CC2)c(OC)c1` (centres unmarked) [Example 543, N-{1-[1-(2,4-Dimethoxyphenyl)ethyl]piperidin-4-yl}-6-(3-fluorophenyl)nicotinamide], the IC50 stood at 3.27 nM.

For `COc1ccc(CN2CCC(NC(=O)c3ccc(-c4cccc(F)c4)nc3)CC2)cc1Cl` [Example 204, N-[1-(3-Chloro-4-methoxybenzyl)piperidin-4-yl]-6-(3-fluorophenyl)nicotinamide], the IC50 turned out to be 0.067 nM.

In the case of `O=C(NC1CCN(C2CCCC2)CC1)c1ccc(-c2cccc(F)c2)nc1` [Example 551, N-(1-Cyclopentylpiperidin-4-yl)-6-(3-fluorophenyl)nicotinamide], the IC50 was 1.32 nM.

In the case of `CCCc1ncc(CN2CCC(NC(=O)c3ccc(-c4cccc(F)c4)nc3)CC2)cn1` [Example 441, 6-(3-Fluorophenyl)-N-{1-[(2-propylpyrimidin-5-yl)methyl]piperidin-4-yl}nicotinamide], the IC50 worked out at 2.58 nM.

Regarding `O=C(NC1CCN(c2nc3ccccc3o2)CC1)c1ccc(-c2cccc(F)c2)nc1` [Example 158, N-[1-(1,3-Benzoxazol-2-yl)piperidin-4-yl]-6-(3-fluorophenyl)nicotinamide], the 50% inhibitory concentration (IC50) was determined as 1.58 nM.

Regarding `CCc1csc(CN2CCC(NC(=O)c3ccc(-c4cccc(F)c4)nc3)CC2)n1` [Example 411, N-{1-[(4-Ethyl-1,3-thiazol-2-yl)methyl]piperidin-4-yl}-6-(3-fluorophenyl)nicotinamide], the IC50 was found to be 1.36 nM.

For the compound `Cc1cc(CN2CCC(NC(=O)c3ccc(-c4cccc(F)c4)nc3)CC2)ccn1` [Example 355, 6-(3-Fluorophenyl)-N-{1-[(2-methylpyridin-4-yl)methyl]piperidin-4-yl}nicotinamide], the IC50 was 0.513 nM.

As to `O=C(NC1CCN(Cc2nc(-c3cccc(F)c3)cs2)CC1)c1ccc(-c2cccc(F)c2)nc1` [Example 408, 6-(3-Fluorophenyl)-N-(1-{[4-(3-fluorophenyl)-1,3-thiazol-2-yl]methyl}piperidin-4-yl)nicotinamide], the IC50 was determined as 61.9 nM.

With `COc1cccc(CN2CCC(NC(=O)c3ccc(-c4cccc(F)c4)nc3)CC2)c1OC` [Example 230, N-[1-(2,3-Dimethoxybenzyl)piperidin-4-yl]-6-(3-fluorophenyl)nicotinamide], the IC50 was 0.53 nM.

As to `CC(C)Cc1cc(CN2CCC(NC(=O)c3ccc(-c4cccc(F)c4)nc3)CC2)n[nH]1` [Example 429, 6-(3-Fluorophenyl)-N-{1-[(5-isobutyl-1H-pyrazol-3-yl)methyl]piperidin-4-yl}nicotinamide], the half-inhibitory concentration (IC50) came out at 1.12 nM.

Regarding `CC(C)c1cc(CN2CCC(NC(=O)c3ccc(-c4cccc(F)c4)nc3)CC2)n[nH]1` [Example 366], the IC50 stood at 2.42 nM.

`O=C(CN1CCC(NC(=O)c2ccc(-c3cccc(F)c3)nc2)CC1)c1ccccc1` [Example 194, 6-(3-Fluorophenyl)-N-[1-(2-oxo-2-phenylethyl)piperidin-4-yl]nicotinamide]: the IC50 amounted to 3.5 nM.

With `COc1cccc(-c2ccnc(N3CCC(NC(=O)c4ccc(-c5cccc(F)c5)nc4)CC3)n2)c1` [Example 177, 6-(3-Fluorophenyl)-N-{1-[4-(3-methoxyphenyl)pyrimidin-2-yl]piperidin-4-yl}nicotinamide], the concentration for half-maximal inhibition (IC50) stood at 68.4 nM.

For `O=C(NC1CCN(C(=O)OCc2ccccc2)CC1)c1ccc(-c2cccc(F)c2)nc1` [Example 521, Benzyl 4-({[6-(3-fluorophenyl)pyridin-3-yl]carbonyl}amino)piperidine-1-carboxylate], the IC50 is 556 nM.

Take `N#Cc1ccc(C(F)(F)F)nc1N1CCC(NC(=O)c2ccc(-c3cccc(F)c3)nc2)CC1` [Example 70, N-{1-[3-Cyano-6-(trifluoromethyl)pyridin-2-yl]piperidin-4-yl}-6-(3-fluorophenyl)nicotinamide]: the IC50 turned out to be 3.26 nM.

Consider `COc1ccc(C(C)N2CCC(NC(=O)c3ccc(-c4cccc(F)c4)nc3)CC2)cc1` (centres unmarked) [Example 535, 6-(3-Fluorophenyl)-N-{1-[1-(4-methoxyphenyl)ethyl]piperidin-4-yl}nicotinamide], for which the IC50 was 2.11 nM.

In the case of `COc1cc(N2CCC(NC(=O)c3ccc(-c4cccc(F)c4)nc3)CC2)ncn1` [Example 49, 6-(3-Fluorophenyl)-N-[1-(6-methoxypyrimidin-4-yl)piperidin-4-yl]nicotinamide], the IC50 was determined as 0.619 nM.

For the compound `O=C(NC1CCN(Cc2cc(F)c(F)cc2F)CC1)c1ccc(-c2cccc(F)c2)nc1` [Example 218, 6-(3-Fluorophenyl)-N-[1-(245-trifluorobenzyl)piperidin-4-yl]nicotinamide], the 50% inhibitory concentration (IC50) stood at 0.448 nM.

Turning to `CCn1cc(CN2CCC(NC(=O)c3ccc(-c4cccc(F)c4)nc3)CC2)c(C)n1` [Example 276, N-{1-[(1-Ethyl-3-methyl-1H-pyrazol-4-yl)methyl]piperidin-4-yl}-6-(3-fluorophenyl)nicotinamide], the IC50 came to 0.743 nM.

For the compound `O=C(NC1CCN(c2ccc(C(=O)N3CCC(F)C3)cn2)CC1)c1ccc(-c2cccc(F)c2)nc1` (centres unmarked) [Example 568, 6-(3-Fluorophenyl)-N-(1-{5-[(3-fluoropyrrolidin-1-yl)carbonyl]pyridin-2-yl}piperidin-4-yl)nicotinamide], the 50% inhibitory concentration (IC50) came to 0.649 nM.

For the compound `CCCC(=O)N1CCC(NC(=O)c2ccc(-c3cccc(OC)c3)nc2)CC1` [Example 19, N-(1-Butyrylpiperidin-4-yl)-6-(3-methoxyphenyl)nicotinamide], the IC50 is 36.2 nM.

With `N#Cc1ccc(Cn2nnnc2N2CCC(NC(=O)c3ccc(-c4cccc(F)c4)nc3)CC2)cc1` [Example 102, N-{1-[1-(4-Cyanobenzyl)-1H-tetrazol-5-yl]piperidin-4-yl}-6-(3-fluorophenyl)nicotinamide], the IC50 was 0.943 nM.

On to `O=C(NC1CCN(c2ccc(C(=O)N3CC=CC3)cn2)CC1)c1ccc(-c2cccc(F)c2)nc1` [Example 571, N-{1-[5-(2,5-Dihydro-1H-pyrrol-1-ylcarbonyl)pyridin-2-yl]piperidin-4-yl)-6-(3-fluorophenyl)nicotinamide], for which the IC50 was found to be 1.04 nM.

`CC(C)CN1CCC(N2CCC(NC(=O)c3ccc(-c4cccc(F)c4)nc3)CC2)CCC1=O` (centres unmarked) [Example 538, 6-(3-Fluorophenyl)-N-[1-(1-isobutyl-7-oxoazepan-4-yl)piperidin-4-yl]nicotinamide]: the concentration for half-maximal inhibition (IC50) was 1.94 nM.

For `CCCn1nccc1CN1CCC(NC(=O)c2ccc(-c3cccc(F)c3)nc2)CC1` [Example 517, 6-(3-Fluorophenyl)-N-{1-[(1-propyl-1H-pyrazol-5-yl)methyl]piperidin-4-yl}nicotinamide], the IC50 worked out at 0.41 nM.

The values are drawn from US7902373B2 (Pfizer Inc, priority 2006, dated 2011).
